In patent publication US11999716B2, “WDR5 inhibitors and modulators” (priority 2018, dated 2024):

These molecules were tested on MV4:11 human cancer cell lines (assay: Cellular viability / anti-proliferative activity, CellTiter-Glo, 5 day protocol). Details: Homo sapiens, MV4-11, 120 h, MV4:11 cells; 5 day incubation; CellTiter-Glo; mean of minimum two replicates; read-out: GI50 on cellular proliferation of MV4:11 human cancer cell lines.
Assay type: cell-based
Procedure: Cellular Viability of Human Tumor Cell Lines
Anti proliferative activity using MLL-harboring cell lines. […] Viability assays are performed by dispensing 200 cells at 7200 cells/mL into each well of an opaque 384-well plate and adding compounds at the indicated concentrations in a final volume of 32 μL and a final concentration of DMSO of 0.3% for all samples. A certain range of compound concentrations is made through a series of 2-fold dilutions starting 30 μM at the highest, total 22 dilutions. After a set incubation period, 5 day protocol, the viability of cells in each well is assessed using the CellTiter-Glo assay (Promega), read on a 96 Microplane Luminometer (Cytation 3, BioTek). Serial dilutions of each cell type are performed in all assays to generate standard curves and the final densities of cells are determined within the dynamic range of the instrument. GI50 values are calculated based on XLfit software (IDBS, Guildford, UK) with Sigmoidal Dose-Response Model. Each compound is tested in minimum of two replicates. Data are expressed as mean.

Row | Compound | GI50
1 | Cc1ccnc(CN2CCc3c(cc(Cn4ccn(C5CC5)c4=N)cc3-c3cn(C)nc3C(F)(F)F)C2=O)c1 [Example 51, 7-((3-Cyclopropyl-2-imino-2,3-dihydro-1H-imidazol-1-yl)methyl)-5-(1-methyl-3-(trifluoromethyl)-1H-pyrazol-4-yl)-2-((4-methylpyridin-2-yl)methyl)-3,4-dihydroisoquinolin-1(2H)-one] | < 50 nM
2 | Cc1ccnc(CN2CCc3c(cc(Cn4ccn(C)c4=N)cc3-c3cn(C)nc3C(F)(F)F)C2=O)c1 [Example 53, 7-((2-Imino-3-methyl-2,3-dihydro-1H-imidazol-1-yl)methyl)-5-(1-methyl-3-(trifluoromethyl)-1H-pyrazol-4-yl)-2-((4-methylpyridin-2-yl)methyl)-3,4-dihydroisoquinolin-1(2H)-one] | < 50 nM
3 | CCn1cc(-c2cc(CN3CCN(C)C3=N)cc3c2CCN(Cc2cc(OC)ccn2)C3=O)c(C(F)(F)F)n1 [Example 55, 5-(1-Ethyl-3-(trifluoromethyl)-1H-pyrazol-4-yl)-7-((2-imino-3-methylimidazolidin-1-yl)methyl)-2-((4-methoxypyridin-2-yl)methyl)-3,4-dihydroisoquinolin-1(2H)-one] | < 50 nM
4 | CCn1cc(-c2cc(Cn3ccn(C4CC4)c3=N)cc3c2CCN(Cc2cc(OC)ccn2)C3=O)c(C(F)(F)F)n1 [Example 58, 7-((3-Cyclopropyl-2-imino-2,3-dihydro-1H-imidazol-1-yl)methyl)-5-(1-ethyl-3-(trifluoromethyl)-1H-pyrazol-4-yl)-2-((4-methoxypyridin-2-yl)methyl)-3,4-dihydroisoquinolin-1(2H)-one] | 54 nM
5 | COc1cc(CN2CCc3c(cc(Cn4ccn(C)c4=N)cc3-c3ncc(F)cc3C)C2=O)cc(OC)c1 [Example 59, 2-(3,5-Dimethoxybenzyl)-5-(5-fluoro-3-methylpyridin-2-yl)-7-((2-imino-3-methyl-2,3-dihydro-1H-imidazol-1-yl)methyl)-3,4-dihydroisoquinolin-1(2H)-one] | 274 nM

The next lines start with the values.

Row | GI50 | Compound
6 | > 938 nM | CCn1cc(-c2cc(Cn3ccn(C4CC4)c3=N)cc3c2CCN(Cc2cc(OC)ccn2)C3=O)cn1 [Example 50, 7-((3-Cyclopropyl-2-imino-2,3-dihydro-1H-imidazol-1-yl)methyl)-5-(1-ethyl-1H-pyrazol-4-yl)-2-((4-methoxypyridin-2-yl)methyl)-3,4-dihydroisoquinolin-1(2H)-one]
7 | < 50 nM | COc1ccnc(CN2CCc3c(cc(Cn4ccn(C)c4=N)cc3-c3ccc(F)cc3C)C2=O)c1 [Example 52, 5-(4-fluoro-2-methylphenyl)-7-((2-imino-3-methyl-2,3-dihydro-1H-imidazol-1-yl)methyl)-2-((4-methoxypyridin-2-yl)methyl)-3,4-dihydroisoquinolin-1(2H)-one]
8 | 880 nM | COc1ccnc(CN2CCc3c(cc(Cn4ccn(C)c4=N)cc3C3CC3)C2=O)c1 [Example 54, 5-Cyclopropyl-7-((2-imino-3-methyl-2,3-dihydro-1H-imidazol-1-yl)methyl)-2-((4-methoxypyridin-2-yl)methyl)-3,4-dihydroisoquinolin-1(2H)-one]
9 | 870 nM | CCn1cc(-c2cc(Cn3cc4n(c3=N)CCC4)cc3c2CCN(Cc2cc(OC)ccn2)C3=O)c(C(F)(F)F)n1 [Example 56, 5-(1-Ethyl-3-(trifluoromethyl)-1H-pyrazol-4-yl)-7-((3-imino-6,7-dihydro-3H-pyrrolo[1,2-c]imidazol-2(5H)-yl)methyl)-2-((4-methoxypyridin-2-yl)methyl)-3,4-dihydroisoquinolin-1(2H)-one]
10 | 50 nM | CCn1cc(-c2cc(Cn3ccn(C)c3=N)cc3c2CCN(Cc2cc(OC)ccn2)C3=O)c(C(F)(F)F)n1 [Example 57, 5-(1-Ethyl-3-(trifluoromethyl)-1H-pyrazol-4-yl)-7-((2-imino-3-methyl-2,3-dihydro-1H-imidazol-1-yl)methyl)-2-((4-methoxypyridin-2-yl)methyl)-3,4-dihydroisoquinolin-1(2H)-one]
